This is an account of results in patent US10112941B2, “Tricyclic compounds as anticancer agents” (BRISTOL-MYERS SQUIBB COMPANY, priority 2013, dated 2018).

The assay deals with BRD4 (Homo sapiens, UniProt O60885). The experiment in a line: Time Resolved Fluorescence Resonance Energy Transfer (TR-FRET) binding assay, BRD4. The following applies: one of the FRET assays described; read-out: FRET BRD4 IC50.

Some results are limits rather than exact numbers.

As for `[2H]C([2H])(O)c1ccc2c3ncc(-c4c(C)nnn4C)cc3n([C@H](c3ccccc3)C3CCOCC3)c2c1` [Example 407, [3-(Dimethyl-1H-1,2,3-triazol-5-yl)-5-[(S)-oxan-4-yl(phenyl)methyl]-5H-pyrido[3,2-b]indol-7-yl](^2H2)methanol], the half-inhibitory concentration (IC50) was less than 5 nM.

For `Cc1nnn(C)c1-c1cnc2c3ccc(C(O)(C4CC4)C4CC4)cc3n([C@H](c3ccccc3)C3CCOCC3)c2c1` [Example 408, Dicyclopropyl[3-(dimethyl-1H-1,2,3-triazol-5-yl)-5-[(S)-oxan-4-yl(phenyl)methyl]-5H-pyrido[3,2-b]indol-7-yl]methanol], the IC50 is less than 5 nM. The figure for `Cc1nnn(C)c1-c1cnc2c3cc(Cl)c(C(C)(C)O)cc3n([C@H](c3ccccc3)C3CCOCC3)c2c1` [Example 409, 2-[8-Chloro-3-(dimethyl-1H-1,2,3-triazol-5-yl)-5-[(S)-oxan-4-yl(phenyl)methyl]-5H-pyrido[3,2-b]indol-7-yl]propan-2-ol] is less than 5 nM; for `Cc1nnn(C)c1-c1cnc2c3ccc(C(C)(C)NS(C)(=O)=O)cc3n([C@H](c3ccccc3)C3CCOCC3)c2c1` [Example 411, N-{2-[3-(Dimethyl-1H-1,2,3-triazol-5-yl)-5-[(S)-oxan-4-yl(phenyl)methyl]-5H-pyrido[3,2-b]indol-7-yl]propan-2-yl}methanesulfonamide] it is less than 5 nM; for `COC(=O)NC(C)(C)c1ccc2c3ncc(-c4c(C)nnn4C)cc3n([C@H](c3ccccc3)C3CCOCC3)c2c1` [Example 412, Methyl N-{2-[3-(dimethyl-1H-1,2,3-triazol-5-yl)-5-[(S)-oxan-4-yl(phenyl)methyl]-5H-pyrido[3,2-b]indol-7-yl]propan-2-yl}carbamate] it is less than 5 nM. With `Cc1nnn(C)c1-c1cnc2c3ccc(C(=O)N4CC(F)C4)cc3n([C@H](c3ccccc3)C3CCOCC3)c2c1` [Example 413, 5-[7-(3-Fluoroazetidine-1-carbonyl)-5-[(S)-oxan-4-yl(phenyl)methyl]-5H-pyrido[3,2-b]indol-3-yl]-1,4-dimethyl-1H-1,2,3-triazole] the figure was less than 5 nM; with `Cc1nnn(C)c1-c1cnc2c3ccc(C(=O)N4CC(F)(F)C4)cc3n([C@H](c3ccccc3)C3CCOCC3)c2c1` [Example 414, 5-[7-(3,3-Difluoroazetidine-1-carbonyl)-5-[(S)-oxan-4-yl(phenyl)methyl]-5H-pyrido[3,2-b]indol-3-yl]-1,4-dimethyl-1H-1,2,3-triazole], less than 5 nM; with `Cc1nnn(C)c1-c1cnc2c3ccc(C(C)(O)C4CC4)c(F)c3n([C@H](c3ccccc3)C3CCOCC3)c2c1` (stereo partly drawn) [Example 415, 1-Cyclopropyl-1-{6-fluoro-3-[4-(^2H3)methyl-1-methyl-1H-1,2,3-triazol-5-yl]-5-[(S)-oxan-4-yl(phenyl)methyl]-5H-pyrido[3,2-b]indol-7-yl}ethan-1-ol], less than 5 nM. As to `Cc1nnn(C)c1-c1cnc2c3ccc(C(C)(O)C4CC4)c(F)c3n([C@H](c3ccccc3)C3CCOCC3)c2c1` (stereo partly drawn) [Example 416, 1-Cyclopropyl-1-{6-fluoro-3-[4-(^2H3)methyl-1-methyl-1H-1,2,3-triazol-5-yl]-5-[(S)-oxan-4-yl(phenyl)methyl]-5H-pyrido[3,2-b]indol-7-yl}ethan-1-ol], the 50% inhibitory concentration (IC50) was less than 5 nM. With `Cc1cnn(C)c1-c1cnc2c3ccc(S(C)(=O)=O)cc3n([C@H](c3ccccc3)C3CCOCC3)c2c1` [Example 417, 5-{7-Methanesulfonyl-5-[(S)-oxan-4-yl(phenyl)methyl]-5H-pyrido[3,2-b]indol-3-yl}-1,4-dimethyl-1H-pyrazole] the figure was less than 5 nM.

Turning to `Cn1nccc1-c1cnc2c3ccc(S(C)(=O)=O)cc3n([C@H](c3ccccc3)C3CCOCC3)c2c1` [Example 418, 5-{7-Methanesulfonyl-5-[(S)-oxan-4-yl(phenyl)methyl]-5H-pyrido[3,2-b]indol-3-yl}-1-methyl-1H-pyrazole], the IC50 is less than 25 nM. With `Cc1nnn(C)c1-c1cnc2c3ccc(C4(O)CC4)cc3n([C@H](c3ccccc3)C3CCOCC3)c2c1` [Example 419, 1-[3-(Dimethyl-1H-1,2,3-triazol-5-yl)-5-[(S)-oxan-4-yl(phenyl)methyl]-5H-pyrido[3,2-b]indol-7-yl]cyclopropan-1-ol] the figure was less than 5 nM. With `C=C(C)c1ccc2c3ncc(-c4c(C)nnn4C)cc3n([C@H](c3ccccc3)C3CCOCC3)c2c1` [Example 420, 1,4-Dimethyl-5-{5-[(S)-oxan-4-yl(phenyl)methyl]-7-(prop-1-en-2-yl)-5H-pyrido[3,2-b]indol-3-yl}-1H-1,2,3-triazole] the figure was less than 5 nM; with `CC(=O)c1ccc2c3ncc(-c4c(C)nnn4C)cc3n([C@H](c3ccccc3)C3CCOCC3)c2c1` [Example 421, 1-[3-(Dimethyl-1H-1,2,3-triazol-5-yl)-5-[(S)-oxan-4-yl(phenyl)methyl]-5H-pyrido[3,2-b]indol-7-yl]ethan-1-one], less than 5 nM. The figure for `Cc1nnn(C)c1-c1cnc2c3ccc(C(C)(O)CO)cc3n([C@H](c3ccccc3)C3CCOCC3)c2c1` (stereo partly drawn) [Example 424, 2-[3-(Dimethyl-1H-1,2,3-triazol-5-yl)-5-[(S)-oxan-4-yl(phenyl)methyl]-5H-pyrido[3,2-b]indol-7-yl]propane-1,2-diol] is less than 5 nM; for `Cc1nnn(C)c1-c1cnc2c3cc(C(=O)N4CC(C)(O)C4)ccc3n([C@H](c3ccccc3)C3CCOCC3)c2c1` [Example 427, 1-[3-(Dimethyl-1H-1,2,3-triazol-5-yl)-5-[(S)-oxan-4-yl(phenyl)methyl]-5H-pyrido[3,2-b]indole-8-carbonyl]-3-methylazetidin-3-ol] it is less than 5 nM. As to `Cc1nnn(C)c1-c1cnc2c3ccc([C@@](C)(O)C4CC4)c(F)c3n([C@H](c3ccccc3)C3CCOCC3)c2c1` [Example 431, (1S)-1-Cyclopropyl-1-[3-(dimethyl-1H-1,2,3-triazol-5-yl)-6-fluoro-5-[(S)-oxan-4-yl(phenyl)methyl]-5H-pyrido[3,2-b]indol-7-yl]ethan-1-ol], the IC50 was less than 5 nM. With `Cc1nnn(C)c1-c1cnc2c3ccc([C@](C)(O)C4CC4)c(F)c3n([C@H](c3ccccc3)C3CCOCC3)c2c1` [Example 434, (1R)-1-cyclopropyl-1-{6-fluoro-3-[4-(^2H3)methyl-1-methyl-1H-1,2,3-triazol-5-yl]-5-[(S)-oxan-4-yl(phenyl)methyl]-5H-pyrido[3,2-b]indol-7-yl}ethan-1-ol] the figure was less than 5 nM; with `[2H]C([2H])([2H])c1nnn(C)c1-c1cnc2c3ccc(C(C)(O)C4CC4)c(F)c3n([C@H](c3ccccc3F)C3CCOCC3)c2c1` (stereo partly drawn) [Example 437, 1-Cyclopropyl-1-{6-fluoro-5-[(S)-(2-fluorophenyl)(oxan-4-yl)methyl]-3-[4-(^2H3)methyl-1-methyl-1H-1,2,3-triazol-5-yl]-5H-pyrido[3,2-b]indol-7-yl}ethan-1-ol], less than 5 nM. The figure for `COc1nnn(C)c1-c1cnc2c3ccc(C(C)(O)C4CC4)c(F)c3n([C@H](c3ccccc3)C3CCOCC3)c2c1` (stereo partly drawn) [Example 439, 1-Cyclopropyl-1-[6-fluoro-3-(4-methoxy-1-methyl-1H-1,2,3-triazol-5-yl)-5-[(S)-oxan-4-yl(phenyl)methyl]-5H-pyrido[3,2-b]indol-7-yl]ethan-1-ol] is less than 5 nM. With `[2H]C([2H])([2H])c1nnn(C)c1-c1cnc2c3cc(F)c(C(C)(O)C4CC4)cc3n([C@H](c3ccccc3)C3CCOCC3)c2c1` (stereo partly drawn) [Example 445, 1-Cyclopropyl-1-{8-fluoro-3-[4-(^2H3)methyl-1-methyl-1H-1,2,3-triazol-5-yl]-5-[(S)-oxan-4-yl(phenyl)methyl]-5H-pyrido[3,2-b]indol-7-yl}ethan-1-ol] the figure was less than 5 nM. For `[2H]C([2H])([2H])c1nnn(C)c1-c1cnc2c3cc(F)c(C(C)(O)C4CC4)cc3n([C@H](c3ccccc3)C3CCOCC3)c2c1` (stereo partly drawn) [Example 446, 1-Cyclopropyl-1-{8-fluoro-3-[4-(^2H3)methyl-1-methyl-1H-1,2,3-triazol-5-yl]-5-[(S)-oxan-4-yl(phenyl)methyl]-5H-pyrido[3,2-b]indol-7-yl}ethan-1-ol], the concentration for half-maximal inhibition (IC50) is less than 5 nM. The figure for `[2H]C([2H])([2H])c1nnn(C)c1-c1cnc2c3cc(F)c(C(C)(C)O)c(F)c3n([C@H](c3ccccc3)C3CCOCC3)c2c1` [Example 452, 2-{6,8-Difluoro-3-[4-(^2H3)methyl-1-methyl-1H-1,2,3-triazol-5-yl]-5-[(S)-oxan-4-yl(phenyl)methyl]-5H-pyrido[3,2-b]indol-7-yl}propan-2-ol] is less than 5 nM; for `Cn1nncc1-c1cnc2c3ccc(S(C)(=O)=O)cc3n([C@H](c3ccccc3)C3CCOCC3)c2c1` [Example 453, 5-{7-Methanesulfonyl-5-[(S)-oxan-4-yl(phenyl)methyl]-5H-pyrido[3,2-b]indol-3-yl}-1-methyl-1H-1,2,3-triazole] it is less than 5 nM. The figure for `Cc1ncn(C)c1-c1cnc2c3ccc(S(C)(=O)=O)cc3n([C@H](c3ccccc3)C3CCOCC3)c2c1` [Example 454, 5-{7-Methanesulfonyl-5-[(S)-oxan-4-yl(phenyl)methyl]-5H-pyrido[3,2-b]indol-3-yl}-1,4-dimethyl-1H-imidazole] is less than 25 nM.

For `Cc1n[nH]cc1-c1cnc2c3ccc(S(C)(=O)=O)cc3n([C@H](c3ccccc3)C3CCOCC3)c2c1` [Example 455, 4-{7-Methanesulfonyl-5-[(S)-oxan-4-yl(phenyl)methyl]-5H-pyrido[3,2-b]indol-3-yl}-3-methyl-1H-pyrazole], the half-maximal inhibitory concentration (IC50) was less than 25 nM. With `Cc1nnn(C)c1-c1cnc2c3ccc(C(N)=O)c(F)c3n([C@H](c3ccccc3)C3CCOCC3)c2c1` [Example 460, 3-(Dimethyl-1H-1,2,3-triazol-5-yl)-6-fluoro-5-[(S)-oxan-4-yl(phenyl)methyl]-5H-pyrido[3,2-b]indole-7-carboxamide] the figure was less than 5 nM.

Regarding `Cc1nnn(C)c1-c1cnc2c3ccc(C(C)(C)N)c(F)c3n([C@H](c3ccccc3)C3CCOCC3)c2c1` [Example 461, 2-[3-(Dimethyl-1H-1,2,3-triazol-5-yl)-6-fluoro-5-[(S)-oxan-4-yl(phenyl)methyl]-5H-pyrido[3,2-b]indol-7-yl]propan-2-amine], the half-inhibitory concentration (IC50) was less than 5 nM.

What is called IC50 is the midpoint of a concentration-inhibition curve.
